{"source": "patent US20230009323A1", "about": "“COMPOUNDS AND METHODS FOR THE TREATMENT OF CRYPTOSPORIDIOSIS” (The Broad Institute, Inc., priority 2019, published 2023)", "key": {"[1]": {"test_system": "C. parvum (Field Isolate) WSU", "test": "C. parvum field isolate (WSU) growth in HCT-8 cells", "format": "cell-based", "conditions": "Cryptosporidium parvum", "experimental": "(§1) Studies using farm C. parvum isolates and the C. hominis TU502 isolate were performed by Calibr at Scripps Research (La Jolla, Calif.) in 1,536-well plates using a slightly modified immunofluorescence assay as described in Love, M. S. et al. PLoS neglected tropical diseases 11, e0005373, doi:10.1371/journal.pntd.0005373 (2017), hereby incorporated by reference in its entirety. HCT-8 cell culture medium was replaced with RPMI 1640 medium supplemented with 2% heat-inactivated horse serum, 100 U·mL^−1 penicillin, and […] 24 h prior to infection with the indicated isolate. The C. parvum Iowa isolate was included as a reference in all experiments. Imaging was performed using a Cellnsight CX5 High Content screening platform (Thermo Scientific) with a 10× objective and acquisition of one microscopic field per well. Images were processed using HCS Studio Scan software, and the selected-object count (HCT-8 cells) and spot count (parasitophorous vacuoles) were analyzed in Genedata Screener (version 13.0; Standard). Dose-response curves and EC50 values were calculated using the Smart Fit function of Genedata Analyzer."}, "HEK293T cytotoxicity": {"test": "HEK293T cytotoxicity", "format": "cell-based", "conditions": "human, HEK293T cells"}, "[2]": {"test_system": "C. parvum WT transgenic PheRS (wtL482)", "test": "In vitro drug susceptibility in HCT-8 cells, luminescence, wild type transgenic", "format": "cell-based", "conditions": "Cryptosporidium parvum, HCT-8, 48 h, read-out: EC50, wild type transgenic", "experimental": "(§2) The in vitro drug susceptibility assay using transgenic parasites expressing Nluc was performed as described in Vinyak et al. Briefly, host intestinal epithelial adenocarcinoma (HCT-8) cells grown in 96-well plates were infected with purified transgenic Nluc-expressing oocysts (1,000 oocysts per well) and incubated with different concentrations of Compound 11 for 48 hours. Culture supernatant was discarded from the wells after 48 hours, and 200 μl of NanoGlo lysis buffer containing 1:50 of NanoGlo substrate (Promega) was added to the wells. Lysates were transferred to white 96-well plates and luminescence was measured on a Glomax luminescence reader (Promega). EC50 values were calculated in GraphPad Prism software v7.\n(§3) Oocysts from the mutant (mut482V) and wild type (wtL482) transgenic lines were purified as well as the parent strain (Bunchgrass) used to generate the transgenics. Sporozoites were excised from these oocysts and used to infect 96 well format HCT-8 cultures to perform in vitro drug susceptibility assays. Cultures were incubated for 48 hours in the presence of varying concentrations of Compound 11 and parasite growth was measured by establishing whole well luciferase activity to calculate EC50 values for each strain."}, "[3]": {"test_system": "C. parvum (Iowa) Sterling", "test": "C. parvum (Iowa) Sterling growth in HCT-8 cells", "format": "cell-based", "conditions": "Cryptosporidium parvum", "experimental": "as §1"}, "C. parvum [4]": {"test_system": "C. parvum", "test": "Host cell invasion assay", "format": "cell-based, Cryptosporidium parvum"}, "[5]": {"test_system": "C. parvum mutant transgenic PheRS (mut482V)", "test": "microbe, parasite or virus in culture", "format": "cell-based, Cryptosporidium parvum", "experimental": "as §2, §3"}, "cytosolic PfcPheRS": {"test_system": "cytosolic PfcPheRS", "conditions": "previously reported; cited from earlier work"}, "[6]": {"test_system": "C. parvum parental WT (Bunchgrass)", "test": "In vitro drug susceptibility in HCT-8 cells, luminescence, parent strain", "format": "cell-based", "conditions": "Cryptosporidium parvum; 48 h, HCT-8, luciferase activity", "experimental": "as §2, §3"}, "C. parvum [7]": {"test_system": "C. parvum", "test": "NOD SCID gamma mouse model of established cryptosporidiosis, fecal oocyst shedding by qPCR", "format": "in vivo, NOD SCID gamma mice", "excerpt": "FIG. 4A is a schematic of NOD SCID gamma (NSG) mouse model of established intestinal cryptosporidiosis. Intestinal C. parvum infection was established by oral gavage of ˜10^5 oocysts either 7 days (FIGS. 4B and C) or 14 days (FIG. 4D) prior to oral treatment with bicyclic azetidines, vehicle, or paromomycin (positive control). All data are the mean and SEM (n=4 mice per experimental group) of parasite shedding per mg of feces measured by qPCR with results for individual mice shown as superimposed data points. Data points for which no parasite DNA was detected are shown at the qPCR assay limit of detection (0.1 oocysts per mg feces).\nNOD scid gamma mice (NOD.Cg-Prkdcscid Il2rgtmlWjl/Szj; Jackson Laboratory, Bar Harbor, Me.) (NSG) were used to model established Cryptosporidium infection. All NSG mouse studies were performed in compliance with animal care guidelines and with approval by the University of Vermont Institutional Animal Care and Use Committee. Mice were acquired at three to four weeks of age, and acclimatized for one week prior to infection by oral gavage of ˜10^5 C. parvum Iowa isolate (Bunch Grass Farms) oocysts. They were then treated at the specified times and dosages with each compound dissolved in 0.5% hydroxypropylmethyl cellulose, 0.5% Tween 80 (v/v) plus 5% DMSO.\nThis cryptosporidiosis infection model used 3-4 week old, freshly weaned, NOD SCID gamma mice orally infected with C. parvum oocysts (˜1×10^5). The infection was monitored by qPCR of feces with primers specific for C. parvum and data are shown as number of oocysts milligram^−1 of feces. Six days following infection and upon confirmation of parasite shedding by qPCR, the three compounds, negative and positive control were orally administered at 50 mg·kg^−1 (body weight) every 24 h for 4 days. (FIGS. 4A-D). […] We then performed a dose-ranging study with Compound 11 using the same immunocompromised mouse model and dosing regimens of 5, 20 and 40 mg·kg^−1 every 24 h for 4 days or 10 mg·kg^−1 every 24 h for 7 days. Mice were monitored for an additional 14 days for relapse of infection."}, "C. parvum [8]": {"test_system": "C. parvum", "test": "Asexual growth vs DMC1 sexual differentiation assay", "format": "cell-based, Cryptosporidium parvum", "experimental": "The effect on expression of the meiotic recombination protein DMC1 was previously identified as a sexual stage-specific marker for C. parvum. The potency of Compound 11 for inhibiting asexual development during the first 48 h of infection was compared to its potency at inhibiting DMC1 expression when compound was added after 48 h of culture (the approximate timing of sexual differentiation). In addition to staining for parasites with FITC-Vicia villosa lectin and DNA with Hoechst as above, samples were stained for the presence of DMC1 with an anti-C. parvum DMC1 mouse monoclonal antibody (clone 1H10G7 (IgG2b, kappa) used as undiluted culture medium with a secondary Alexa Fluor 568 goat anti-mouse IgG antibody (Invitrogen) at 1:500 dilution. Cultures were performed in 384-well plates with the addition of amphotericin B (Sigma, catalog) to the culture medium at 0.1 to 0.5 μg·mL^−1 for these assays. Images were acquired as above, and analyzed using NIH ImageJ software."}}, "note": "Entries after “also recorded” stand apart in the source; their conditions may differ.", "data": [{"smiles": "COc1ccc(NC(=O)N2CCCCN3[C@H](CN(C)C)[C@H](c4ccc(C#Cc5ccccc5)cc4)[C@@H]3C2)cc1", "note": "[Compound 11, (8R,9S,10S)-10-((dimethylamino)methyl)-N-(4-methoxyphenyl)-9-(4-(phenylethynyl)phenyl)-1,6-diazabicyclo[6.2.0]decane-6-carboxamide]", "values": [{"measurement": "EC50", "setting": "[1]", "result": 23, "unit": "nM"}, {"measurement": "CC50", "setting": "HEK293T cytotoxicity", "result": 5000, "unit": "nM"}, {"measurement": "EC50", "setting": "[2]", "result": 47, "unit": "nM"}, {"measurement": "EC50", "setting": "[3]", "result": 8, "unit": "nM"}, {"measurement": "effect on host cell invasion", "setting": "C. parvum [4]", "result": "No effect"}, {"measurement": "fold shift in EC50, mutant transgenic vs wild type transgenic", "setting": "[5]", "result": 23, "unit": "fold"}, {"measurement": "EC50", "setting": "[5]; Cryptosporidium parvum, HCT-8, 48 h, read-out: EC50, mutant transgenic", "result": 1060, "unit": "nM"}, {"measurement": "IC50", "setting": "cytosolic PfcPheRS", "result": 23, "unit": "nM"}, {"measurement": "EC50", "setting": "[6]", "result": 29, "unit": "nM"}, {"measurement": "oocyst shedding at follow-up for relapse", "setting": "C. parvum [7]; 10 mg/kg every 24 h for 7 days, monitored an additional 14 days", "result": "no oocyst shedding was observed"}, {"measurement": "log reduction in oocysts·mg^−1 stool", "setting": "C. parvum [7]; oral, 50 mg/kg every 24 h for 4 days", "result": "~3", "unit": "log"}, {"measurement": "reduction in oocyst shedding (oocysts per mg feces)", "setting": "C. parvum [7]; oral, 50 mg/kg every 24 h for 4 days, 50 mg/kg", "result": "significant reduction in oocyst shedding; also recorded: greatest reduction in oocysts"}, {"measurement": "potency on asexual growth (0-48 h) vs DMC1 expression (48-72 h)", "setting": "C. parvum [8]", "result": "approximately equipotent"}]}]}
